This note sets out measurements from US20220380341A1, “INHIBITORS OF HIV-1 NEF FOR THE TREATMENT OF HIV DISEASE” (priority 2018, published 2022).

Read-outs that look alike come from different tables or passages of the source.

Data set [1] concerns the target HIV-1 NefNL4-3 (Human immunodeficiency virus type 1 group M subtype B, UniProt P03406, A33V/T15A/T51N/V11I). In words: Surface plasmon resonance binding to recombinant full-length Nef (NL4-3). As to conditions: for RU30/RUNef (extent of binding): response units at 30 μM relative to Nef immobilized on the SPR chip.
Data set [2] concerns TZM-bl cell line. The data set is classed as cell-based. As to conditions: human, 1 μM. In short, it runs like this: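 Nef-dependent infectivity in TZM-bl cells: HIV-1NL4-3 infection with 1 μM compound, luciferase read at 48 h, normalized against DMSO wild-type and Nef-defective controls. Compound cytotoxicity in uninfected cells measured by Cell Titer Blue.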
Data set [3] deals with HIV-1NL4-3. Kind of data set: HIV-1 infectivity assay in TZM-bl reporter cell line (LTR-luciferase, 48 h). Type of data set: cell-based. As to conditions: Human immunodeficiency virus 1, TZM-bl. In short, it runs like this:
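Compounds were tested at 1 μM in TZM-bl cells infected with HIV-1NL4-3. Infectivity was read as luciferase signal 48 h after infection and expressed as percent inhibition, normalized between DMSO-treated wild-type infection (0%) and DMSO-treated Nef-defective HIV-1 infection (100% of the Nef-dependent effect).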

The mark [4] stands for this setting: 48 h, Table 1, TZM-bl cells, 1 μM, 48 h, 100% = Nef-defective HIV-1, read-out: HIV-1 Infectivity % Inhibition Norm. to Δ-Nef @ 1 μM.
[5] abbreviates: KD, M, Table 4, SPR fit 2-step induced fit, KD = koff/kon × koff2/(koff2 + kon2).
The mark [6] stands for this setting: Nef NL4-3 Binding, SPR 2-state fitting KD, Table 1, 2-step induced-fit model.
The mark [7] stands for this setting: Table 4, 2-step induced fit, T = 1/koff2.
[8] abbreviates: 1.0 μM, TZM-bl reporter cell line, Table 4, read-out: % Infectivity Inhibition.
The mark [9] stands for this setting: KD, M, Table 4, SPR fit 1:1 Langmuir, KD = koff/kon.
Where [10] appears, read: Table 4, 1:1 Langmuir fit, T = 1/koff.

Take `CS(=O)(=O)N1CCC(Cc2nn(-c3nc4ccccc4[nH]3)c(O)c2CCc2ccc(F)cc2)CC1` [Compound I-771, 1-(1H-1,3-benzodiazol-2-yl)-4-[2-(4-fluorophenyl)ethyl]-3-[(1-methanesulfonylpiperidin-4-yl)methyl]-1H-pyrazol-5-ol]: the Kd in data set [1] worked out at 965 nM. The “Percent Viability @ 1 μM (TZM-bl cells)” value in data set [2] was determined as 100.1%. Moreover, the inhibition at 1 µM in data set [3] (setting [4]) is 13.1%.

As for `CC(=O)N1CCC(Cc2nn(-c3nc4ccccc4[nH]3)c(O)c2CCc2ccc(F)cc2)CC1` [Compound I-772, 1-(4-{[1-(1H-1,3-benzodiazol-2-yl)-4-[2-(4-fluorophenyl)ethyl]-5-hydroxy-1H-pyrazol-3-yl]methyl}piperidin-1-yl)ethan-1-one], the Kd in data set [1] came to 858 nM. The “Percent Viability @ 1 μM (TZM-bl cells)” value in data set [2] was found to be 100.1%. Besides, the inhibition at 1 µM in data set [3] (setting [4]) was determined as 49.6%.

For `O=C(OCc1ccccc1)N1CCCC(Cc2nn(-c3nc4ccccc4[nH]3)c(O)c2CCc2ccc(F)cc2)C1` (centres unmarked) [Compound I-773, benzyl 3-{[1-(1H-1,3-benzodiazol-2-yl)-4-[2-(4-fluorophenyl)ethyl]-5-hydroxy-1H-pyrazol-3-yl]methyl}piperidine-1-carboxylate], the dissociation constant (Kd) in data set [1] was 55.9 nM. Also, the “Percent Viability @ 1 μM (TZM-bl cells)” value in data set [2] stood at 101.8%. Further, in data set [3] (setting [4]), the inhibition at 1 µM turned out to be 25.5%.

With `O=S(=O)(NCc1nn(-c2nc3ccccc3[nH]2)c(O)c1CCc1ccc(F)cc1)c1cccnc1` [Compound I-774, N-{[1-(1H-1,3-benzodiazol-2-yl)-4-[2-(4-fluorophenyl)ethyl]-5-hydroxy-1H-pyrazo1-3-y1]methyl}pyridine-3-sulfonamide], the Kd was 252 nM in data set [1], 27.5 nM in data set [1] (setting [5]) and 27.5 nM in data set [1] (setting [6]). Also, the “T, minutes (residence time)” value in data set [1] (setting [7]) was 1.09E + 02 minutes. In addition, the “RU30/RUNef (extent of binding)” value in data set [1] was determined as 2.56E- 03. Moreover, the “% Cell Viability” value in data set [2] was 94.4%. Also, the “Percent Viability @ 1 μM (TZM-bl cells)” value in data set [2] was 94.4%. Further, the inhibition at 1 µM in data set [3] (setting [8]) was 0%; in data set [3] (setting [4]), -0.1%.

Take `CS(=O)(=O)N1CCC(CCc2c(-c3ccc(C(F)(F)F)cn3)nn(-c3nc4cc(Br)ccc4[nH]3)c2O)CC1` [Compound I-775, 1-(5-bromo-1H-1,3-benzodiazol-2-yl)-4-[2-(1-methanesulfonylpiperidin-4-yl)ethyl]-3-[5-(trifluoromethyl)pyridin-2-yl]-1H-pyrazol-5-ol]: in data set [1], the Kd came out at 316 nM and the “RU30/RUNef (extent of binding)” value turned out to be 1.62E- 03. The Kd in data set [1] (setting [9]) stood at 316 nM. In addition, in data set [1] (setting [10]), the “T, minutes (residence time)” value stood at 4.26E + 01 minutes. Further, in data set [2], the “% Cell Viability” value is given as 72.9% and the “Percent Viability @ 1 μM (TZM-bl cells)” value is 72.9%. Further, the inhibition at 1 µM in data set [3] (setting [8]) came to 62.1%. In addition, in data set [3] (setting [4]), the inhibition at 1 µM came to 62.1%.

`CC(C)(O)C(=O)N1CCC(CCc2c(-c3cccc(S(C)(=O)=O)c3)nn(-c3nc4ccccc4[nH]3)c2O)CC1` [Compound I-776, 1-(4-{2-[1-(1H-1,3-benzodiazol-2-yl)-5-hydroxy-3-(3-methanesulfonylphenyl)-1H-pyrazol-4-yl]ethyl}piperidin-1-yl)-2-hydroxy-2-methylpropan-1-one]: the Kd in data set [1] was determined as 393 nM; in data set [1] (setting [5]) it was 1200 nM; in data set [1] (setting [6]), 1200 nM. In addition, the “T, minutes (residence time)” value in data set [1] (setting [7]) was 1.06E + 01 minutes. Besides, in data set [1], the “RU30/RUNef (extent of binding)” value is 5.14E- 03. Moreover, the “% Cell Viability” value in data set [2] was determined as 97.1%. For the same compound, the “Percent Viability @ 1 μM (TZM-bl cells)” value in data set [2] is 97.1%. Also, the inhibition at 1 µM in data set [3] (setting [8]) and in data set [3] (setting [4]) was 19.3% in each case.

Regarding `CC(C)(O)C(=O)N1CCC(Cc2nn(-c3nc4ccccc4[nH]3)c(O)c2CCc2ccc(F)cc2)CC1` [Compound I-777, 1-(4-{[1-(1H-1,3-benzodiazol-2-yl)-4-[2-(4-fluorophenyl)ethyl]-5-hydroxy-1H-pyrazol-3-yl]methyl}piperidin-1-yl)-2-hydroxy-2-methylpropan-1-one], in data set [1], the Kd turned out to be 997 nM and the “RU30/RUNef (extent of binding)” value is on record as 2.23E- 03. Also, the Kd in data set [1] (setting [9]) was found to be 997 nM. The “T, minutes (residence time)” value in data set [1] (setting [10]) amounted to 3.50E + 00 minutes. In data set [2], the “% Cell Viability” value is listed as 97.0% and the “Percent Viability @ 1 μM (TZM-bl cells)” value is given as 97.0%. Further, in data set [3] (setting [8]), the inhibition at 1 µM was found to be 0%. The inhibition at 1 µM in data set [3] (setting [4]) is -3.6%.

`CC(=O)N1CCCC(Cc2c(C3CC3)nn(-c3nc4ccccc4[nH]3)c2O)C1` (centres unmarked) [Compound I-780, 1-(3-{[1-(1H-1,3-benzodiazol-2-yl)-3-cyclopropyl-5-hydroxy-1H-pyrazol-4-yl]methyl}piperidin-1-yl)ethan-1-one]: in data set [1] (setting [9]), the dissociation constant (Kd) was determined as 4070 nM. The “T, minutes (residence time)” value in data set [1] (setting [10]) was 8.13E + 00 minutes. Moreover, in data set [1], the “RU30/RUNef (extent of binding)” value came to 4.47E- 03. Further, in data set [2], the “% Cell Viability” value amounted to 99%. Further, the inhibition at 1 µM in data set [3] (setting [8]) worked out at 0%.

For `CN(C)C(=O)N1CCCC(Cc2c(C3CC3)nn(-c3nc4ccccc4[nH]3)c2O)C1` (centres unmarked) [Compound I-782, 3-{[1-(1H-1,3-benzodiazol-2-yl)-3-cyclopropyl-5-hydroxy-1H-pyrazol-4-yl]methyl}-N,N-dimethylpiperidine-1-carboxamide], in data set [1] (setting [9]), the equilibrium dissociation constant (Kd) amounted to 9410 nM. Besides, in data set [1] (setting [10]), the “T, minutes (residence time)” value came out at 3.62E + 00 minutes. Also, in data set [1], the “RU30/RUNef (extent of binding)” value came out at 5.13E- 03. Moreover, the “% Cell Viability” value in data set [2] was found to be 98.8%. For the same compound, in data set [3] (setting [8]), the inhibition at 1 µM was determined as 61.1%.

For `C[C@@](O)(C(=O)N1CCC(CCc2c(C3CC3)nn(-c3nc4ccccc4[nH]3)c2O)CC1)C(F)(F)F` [Compound I-783, (2R)-1-(4-{2-[1-(1H-1,3-benzodiazol-2-yl)-3-cyclopropyl-5-hydroxy-1H-pyrazol-4-yl]ethyl}piperidin-1-yl)-3,3,3-trifluoro-2-hydroxy-2-methylpropan-1-one], the Kd in data set [1] (setting [9]) is 3370 nM. The “T, minutes (residence time)” value in data set [1] (setting [10]) came to 4.08E + 00 minutes. In addition, in data set [1], the “RU30/RUNef (extent of binding)” value was 1.38E- 03. The “% Cell Viability” value in data set [2] is 100%. In addition, in data set [3] (setting [8]), the inhibition at 1 µM came to 5.4%.

In the case of `Oc1c(CCc2ccc(F)cc2)c(C2CCN(Cc3ccccn3)CC2)nn1-c1nc2ccccc2[nH]1` [Compound I-802, 1-(1H-1,3-benzodiazol-2-yl)-4-[2-(4-fluorophenyl)ethyl]-3-{1-[(pyridin-2-yl)methyl]piperidin-4-yl}-1H-pyrazol-5-ol], the Kd in data set [1] came to 447 nM; in data set [1] (setting [5]) it was 182 nM; in data set [1] (setting [6]), 182 nM. In data set [1] (setting [7]), the “T, minutes (residence time)” value is 2.21E + 01 minutes. In data set [1], the “RU30/RUNef (extent of binding)” value is 2.48E- 03. Besides, the “% Cell Viability” value in data set [2] was found to be 99.3%. Besides, the “Percent Viability @ 1 μM (TZM-bl cells)” value in data set [2] came out at 99.3%. Moreover, the inhibition at 1 µM in data set [3] (setting [8]) and in data set [3] (setting [4]) was 4.4% throughout.

As to `Oc1c(CCc2ccc(F)cc2)c(C2CCN(Cc3cccnc3)CC2)nn1-c1nc2ccccc2[nH]1` [Compound I-803, 1-(1H-1,3-benzodiazol-2-yl)-4-[2-(4-fluorophenyl)ethyl]-3-{1-[(pyridin-3-yl)methyl]piperidin-4-yl}-1H-pyrazol-5-ol], the dissociation constant (Kd) in data set [1] and in data set [1] (setting [9]) was 817 nM throughout. Moreover, the “T, minutes (residence time)” value in data set [1] (setting [10]) turned out to be 1.59E + 01 minutes. In addition, the “RU30/RUNef (extent of binding)” value in data set [1] amounted to 1.69E- 03. Further, the “% Cell Viability” value in data set [2] was determined as 100%. The “Percent Viability @ 1 μM (TZM-bl cells)” value in data set [2] was 100.4%. Also, the inhibition at 1 µM in data set [3] (setting [8]) and in data set [3] (setting [4]) was 3.2% in each case.

As for `Oc1c(CCc2ccc(F)cc2)c(C2CCN(Cc3ccncc3)CC2)nn1-c1nc2ccccc2[nH]1` [Compound I-804, 1-(1H-1,3-benzodiazol-2-yl)-4-[2-(4-fluorophenyl)ethyl]-3-{1-[(pyridin-4-yl)methyl]piperidin-4-yl}-1H-pyrazol-5-ol], in data set [1], the Kd came to 90.8 nM. Also, the “Percent Viability @ 1 μM (TZM-bl cells)” value in data set [2] is 97.5%. For the same compound, the inhibition at 1 µM in data set [3] (setting [4]) stood at 50%.

For `Oc1c(CCc2ccc(F)cc2)c(C2CCN(CC3CCOCC3)CC2)nn1-c1nc2ccccc2[nH]1` [Compound I-806, 1-(1H-1,3-benzodiazol-2-yl)-4-[2-(4-fluorophenyl)ethyl]-3-{1-[(oxan-4-yl)methyl]piperidin-4-yl}-1H-pyrazol-5-ol], in data set [1], the Kd is 9900 nM and the “RU30/RUNef (extent of binding)” value stood at 7.48E- 04. Further, the equilibrium dissociation constant (Kd) in data set [1] (setting [9]) was 9900 nM. Moreover, the “T, minutes (residence time)” value in data set [1] (setting [10]) is recorded as 1.79E + 00 minutes. In data set [2], the “% Cell Viability” value is recorded as 99.1% and the “Percent Viability @ 1 μM (TZM-bl cells)” value came to 99.1%. The inhibition at 1 µM in data set [3] (setting [8]) worked out at 20.6%. The inhibition at 1 µM in data set [3] (setting [4]) stood at 20.6%.

With `Oc1c(CCc2ccc(F)cc2)c(CC2CCN(Cc3ccccn3)CC2)nn1-c1nc2ccccc2[nH]1` [Compound I-807, 1-(1H-1,3-benzodiazol-2-yl)-4-[2-(4-fluorophenyl)ethyl]-3-({1-[(pyridin-2-yl)methyl]piperidin-4-yl}methyl)-1H-pyrazol-5-ol], in data set [1] (Table 1, 1:1 Langmuir fit where the KD2 cell says '1 to 1 fitting', else 2-site fit), the “Nef NL4-3 Binding, SPR 1:1 or 2-site fitting KD1” value is “No Interaction”. Also, the “Percent Viability @ 1 μM (TZM-bl cells)” value in data set [2] is on record as 99.0%. Moreover, in data set [3] (setting [4]), the inhibition at 1 µM is 40.4%.

Usually Kd stands for the free concentration of one partner at which half of the binding sites on the other are occupied at equilibrium, for simple one-to-one binding. As a reminder, the inhibition is the relative decrease from the control value, in per cent.
